How the values were obtained:
plaque-forming psoriasis = test: Topical treatment of plaque-forming psoriasis on the legs of one subject; assay type: in vivo, human
Description: The therapeutic efficacy of MnTnBuOE-2-PyP^5+ when topically delivered was evaluated in a person with large areas of moderately severe plaque-forming psoriasis on upper and lower portions of both legs, with each involved area being approximately 10-20 cm in diameter. MnTnBuOE-2-PyP^5+ was formulated in LIPODERM® topical compounding cream base (available from the Professional Compounding Centers of America (PCCA)). at 0.01% and 0.1% concentrations producing a light brown cream which was applied b.i.d. to lesions on one extremity.

[1] = test system: psoriatic involvement of the scalp; test: Topical treatment of psoriatic involvement of the scalp of one subject; assay type: in vivo, human
Text: A second subject with psoriatic involvement of the scalp of moderate severity was topically treated with MnTnBuOE-2-PyP^5+0.1% in LIPODERM® cream base twice daily for 3 weeks.

[2] = 0.01% and 0.1% in LIPODERM cream base, topical b.i.d., within 5 days

Substance: Manganese ortho tetrakis(N-n-butoxyethylpyridinium-2-yl)porphyrin [MnTnBuOE-2-PyP^5+]
- time to marked improvement (plaque-forming psoriasis; 0.01% and 0.1% in LIPODERM cream base, topical b.i.d.): ≤ 5 days
- area of remaining mild psoriatic reaction (plaque-forming psoriasis; [2]): decrease in the area of remaining mild psoriatic reaction
- clinical irritation (plaque-forming psoriasis; [2]): marked decrease in clinical irritation
- inflammation of lesions (plaque-forming psoriasis; [2]): decreased inflammation
- efficacy of 0.01% compared with 0.1% cream (plaque-forming psoriasis; lesions treated with 0.01% and 0.1% in LIPODERM cream base): Equivalent efficacy
- clinical improvement of psoriatic lesions (plaque-forming psoriasis; person, moderately severe plaque psoriasis of legs, 0.01% and 0.1% in LIPODERM cream base, topical b.i.d.): Marked improvement
- return of the psoriatic reaction ([1]; 30 days after treatment stopped, 0.1% in LIPODERM cream base twice daily for 3 weeks): No return of the psoriatic reaction was observed
- psoriatic scalp reaction after treatment ([1]; person, moderate severity, 0.1% in LIPODERM cream base, topical twice daily for 3 weeks): Complete resolution

From patent US10064871B2, “Methods of treating skin disorders” (Biomimetix JV, LLC, priority 2014, dated 2018)
